Measured values reported in the supplement of paper PMC10307832.

Columns and labels:
Assay in all cases: relative viability (nuclei count vs DMSO), 5 days (fraction); higher = more cells survive
IDH-C35 + Olaparib = compound: Cc1ccccc1C(C(=O)NC1CCCCC1)N(C(=O)Cn1ccnc1C)c1cccc(F)c1 [IDH-C35] + O=C(c1cc(Cc2n[nH]c(=O)c3ccccc23)ccc1F)N1CCN(C(=O)C2CC2)CC1 [Olaparib] (partner 8 µM)
Summary of the method: (§1)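 Nuclei were stained with Hoechst during a one-step fixation (final 0.05% Triton X-100, 1% formaldehyde, 1 ug/ml Hoechst) carried out 5 days after dosing, then counted on 4× images. The cells, lung cancer lines in 1536-well plates, had been dosed by pin tool the day after seeding with one drug alone or a fixed anchor-drug dose plus five library-drug doses (not always all listed) in √10 steps. Relative viability is the nuclei count in treated wells divided by that in vehicle wells, and each value is the median of duplicate plates.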

IDH-C35 + Crizotinib = compound: Cc1ccccc1C(C(=O)NC1CCCCC1)N(C(=O)Cn1ccnc1C)c1cccc(F)c1 [IDH-C35] + C[C@@H](Oc1cc(-c2cnn(C3CCNCC3)c2)cnc1N)c1c(Cl)ccc(F)c1Cl [Crizotinib] (partner 1 µM)
Summary of the method: as §1

[1] = compound: CC1=C(C(=NN1)C)CC2=C(C3=C(S2)N(C(=O)N(C3=O)C)CC(C)C)C(=O)N4C[C@@H](CO4)O + Cc1nc(Nc2ncc(C(=O)Nc3c(C)cccc3Cl)s2)cc(N2CCN(CCO)CC2)n1 [Dasatinib] (partner 0.075 µM)
Summary of the method: as §1

[2] = compound: CC1=C(C(=NN1)C)CC2=C(C3=C(S2)N(C(=O)N(C3=O)C)CC(C)C)C(=O)N4C[C@@H](CO4)O + CS(=O)(=O)CCNCc1ccc(-c2ccc3ncnc(Nc4ccc(OCc5cccc(F)c5)c(Cl)c4)c3c2)o1 [Lapatinib] (partner 2 µM)
Summary of the method: as §1

| Cell Line | relative viability (IDH-C35 + Olaparib; first compound 0.08 µM) | relative viability (IDH-C35 + Olaparib; first compound 0.253 µM) | relative viability (IDH-C35 + Olaparib; first compound 0.8 µM) | relative viability (IDH-C35 + Olaparib; first compound 2.53 µM) | relative viability (IDH-C35 + Olaparib; first compound 8 µM) | relative viability (IDH-C35 + Crizotinib; first compound 0.08 µM) | relative viability (IDH-C35 + Crizotinib; first compound 0.253 µM) | relative viability (IDH-C35 + Crizotinib; first compound 0.8 µM) | relative viability (IDH-C35 + Crizotinib; first compound 2.53 µM) | relative viability (IDH-C35 + Crizotinib; first compound 8 µM) | relative viability ([1]; first compound 0.0025 µM) | relative viability ([1]; first compound 0.007906 µM) | relative viability ([1]; first compound 0.025 µM) | relative viability ([1]; first compound 0.07906 µM) | relative viability ([1]; first compound 0.25 µM) | relative viability ([2]; first compound 0.0025 µM) | relative viability ([2]; first compound 0.007906 µM) | relative viability ([2]; first compound 0.025 µM) | relative viability ([2]; first compound 0.07906 µM) | relative viability ([2]; first compound 0.25 µM) |
| --- | --- | --- | --- | --- | --- | --- | --- | --- | --- | --- | --- | --- | --- | --- | --- | --- | --- | --- | --- | --- |
| NCI-H1993 | 1.21 | 1.13 | 1.03 | 0.997 | 1.08 | 0.888 | 0.874 | 0.833 | 0.743 | 0.903 | 0.614 | 0.497 | 0.572 | 0.596 | 0.517 | 0.856 | 0.809 | 0.744 | 0.745 | 0.947 |
| NCI-H2009 | 0.679 | 0.74 | 0.613 | 0.655 | 0.669 | 0.992 | 1 | 1.08 | 0.971 | 0.995 | 0.354 | 0.301 | 0.253 | 0.247 | 0.267 | 1.12 | 1.48 | 0.963 | 1.04 | 1.26 |
| NCI-H2023 | 0.513 | 0.455 | 0.503 | 0.474 | 0.446 | 0.668 | 0.627 | 0.637 | 0.636 | 0.592 | 0.671 | 0.789 | 0.601 | 0.55 | 0.625 | 1.1 | 0.965 | 0.903 | 1.03 | 0.861 |
| NCI-H2085 | 0.807 | 0.776 | 0.77 | 0.789 | 0.712 | 0.808 | 0.749 | 0.877 | 0.954 | 0.781 | 0.254 | 0.264 | 0.26 | 0.209 | 0.242 | 0.706 | 0.767 | 0.598 | 0.72 | 0.595 |
| NCI-H2087 | 0.561 | 0.533 | 0.627 | 0.58 | 0.558 | 0.91 | 0.898 | 0.843 | 0.902 | 0.841 | 0.715 | 0.924 | 0.844 | 0.769 | 0.905 | 1.11 | 1.15 | 1.09 | 0.939 | 1.23 |
| NCI-H2126 | 0.896 | 0.928 | 0.92 | 0.912 | 0.917 | 0.996 | 1.02 | 1 | 0.981 | 0.992 | 0.695 | 0.591 | 0.659 | 0.53 | 0.585 | 0.816 | 0.739 | 0.78 | 0.741 | 0.739 |
| NCI-H2170 | 0.616 | 0.654 | 0.587 | 0.571 | 0.593 | 1.25 | 1.2 | 1.14 | 1.17 | 1.22 | 0.56 | 0.592 | 0.589 | 0.412 | 0.552 | 0.282 | 0.279 | 0.276 | 0.273 | 0.306 |
| NCI-H2228 | 0.601 | 0.781 | 0.61 | 0.71 | 0.516 | 0.418 | 0.457 | 0.51 | 0.496 | 0.506 | 0.507 | 0.644 | 0.453 | 0.521 | 0.602 | 1.03 | 1.02 | 1.37 | 0.961 | 1.34 |
